Where two headings read alike, the source gives them in different places.
Columns and labels:
[1] = biological target: prostate-specific membrane antigen (PSMA); details: cited from earlier work
[2] = system: human serum antirhamnose antibody (IgG and IgM); experiment: ELISA covalent engagement of serum anti-rhamnose antibody; format: binding; details: 2 μM compound, 2% human serum, 48 h; rhamnose 100 mM added after incubation
Description: Figure 2 Capacity of Rha-cARMs to specifically covalently engage monoclonal anti-23F and serum anti-rhamnose. A. Chemical structures of the molecules investigated. B. Assessment of covalent vs noncovalent (cARM/ARM) engagement of human serum antirhamnose antibody via an ELISA assay. Each ARM/cARM (2 μM) was incubated with 2% human serum for 48 h and subsequently incubated directly on a streptavidin ELISA plate. Recruitment was evaluated by the addition of anti-IgG or anti-IgM HRP-conjugated secondary antibody with subsequent chromogenic substrate addition. “Comp” represents the addition of competitor rhamnose (500 mM) during 48 h of incubation. “Quench” refers to the addition of competitor rhamnose (100 mM) prior to ELISA plate binding but after 48 h of reaction incubation. C. SDS-PAGE fluorescent image of anti-23F antibody covalently labeled by fluorophore substituted Rha-cARMs (6–8). A representative protein stain associated with each gel is included on the left side of the fluorescent gel images. In all cases, 2 μM anti-23F antibody is incubated with 4 μM cARM (2 equiv) for 24 h in PBS spiked with 10% human serum. Where noted, L-rhamnose (100 mM, Rha. C) was used during incubation as a competitor for specific covalent labeling. Where noted, a free fluoresceine competitor (2.5 mM, Fluor. C) was used to distinguish fluorescein-promoted covalent labeling from rhamnose-promoted. The darker background in gels corresponding to cARM 6, 7 is attributed to the differing capacity of free cARM-fluorophore (fluoroscein vs A647) to be retained in gel, as well as an alternative imaging channel (Cy2 for fluorescein, Cy5 for A647). […] D. Kinetic SDS-PAGE fluorescence imaging experiment to determine Rha-AI-cARM/anti-23F antibody labeling kinetics using A647-cARM (8). cARM 8 (2–100 μM) was incubated with anti-23F antibody (2 μM) for up to 4 h. A representative fluorescence gel image is included corresponding to compound 8 (50 μM) incubated with either anti-23F antibody or isotype human IgG. Densitometry analysis with ImageJ was used to quantify relative band intensities. […] The error is calculated by alternative fits of initial rates data (all within the linear labeling range).
Next, we tested if cARM tool compounds can selectively label endogenous human polyclonal antirhamnose antibodies via ELISA (4 α-O rhamnose or 5 α-S rhamnose) (Figure 2B). cARMs (4, 5) and noncovalent analog ARMs (1, 2) were incubated with 2% human serum for 48 h followed by addition to a streptavidin-ELISA plate. Antibody recruitment to the plate surface was measured via the addition of HRP-conjugated anti-IgG or anti-IgM secondary antibody, followed by a chromogenic substrate. […] In the absence of a competitor, we observed robust absorbance signal in samples incubated with cARM. […]

[3] = system: serum polyclonal antirhamnose antibodies (human IgG); experiment: BLI affinity of rhamnose probes for polyclonal human IgG; format: binding; details: for kon: anti-rhamnose assumed 3% of total IgG; for koff: dissociation in 100 mM L-rhamnose
Text: We began by synthesizing antirhamnose affinity probes consisting of α-O/α-S and β-S rhamnose glycosides functionalized with a propargyl group for CuAAC-mediated coupling to a biotin TBD (compounds 1–3, Figure 1A and Scheme S1). This enabled rhamnose immobilization onto streptavidin surfaces and subsequent antibody binding studies. We used biolayer interferometry (BLI) to estimate and compare the apparent affinity of serum polyclonal antirhamnose antibodies for each rhamnose affinity probe (Figure 1B). […] Next, biosensors were submerged in a buffer containing free rhamnose competitor, and dissociation kinetics were measured (Figure 1B, Dissociation). The dissociation buffer contained 100 mM rhamnose competitor to inhibit avidity-based antibody rebinding, which interferes with koff measurements. […] In the context of proximity-inducing molecule development, this low monovalent sugar-binding affinity will ultimately limit ternary complex formation. […] The confirmation of low affinity binding also supports why multivalency has been historically required to efficiently engage antirhamnose antibodies for tumor-immune proximity induction and engage sugar binding receptors in general.
Figure 1 Affinity determination of endogenous and monoclonal antibody sources for L-rhamnose glycoside variants. A. Chemical structures of rhamnose affinity probes. B/C. Approximation of antirhamnose antibody binding affinity for probes 1–3 using biolayer interferometry. B. Purified human serum IgG is used to estimate the affinity of endogenous polyclonal serum antirhamnose antibodies for each affinity probe 1–3. C. Monoclonal anti-23F antibody is used to estimate the potential affinity of vaccine-induced antirhamnose antibodies for each affinity probe 1–3. […] Association was monitored for 900 (B) or 600 (C) seconds. The loaded biosensor probe was then dipped into a dissociation solution of 100 mM L-rhamnose for 600 s. Association curves were fit to a two-phase association model in GraphPad Prism using Kfast to calculate kon. Dissociation curves were similarly fit to a two-phase decay using Kfast to calculate koff. TEXT PRINTED IN THE PICTURE: (B) no label printed: Polyclonal Human IgG: Kd ≈ 7 x10^-5 M | (C) no label printed: Monoclonal Anti-23F: Kd ≈ 6 x10^-6 M DOUBTS OF THE COPYIST ABOUT THIS PICTURE: Panel B, Kd ≈ 7 x10^-5 M: printed once in the plot with no link to a single curve, so it is unclear which of (1) α–O, (2) α–S and (3) β–S it applies to / Panel C, Kd ≈ 6 x10^-6 M: printed once in the plot with no link to a single curve, so it is unclear which of (1) α–O, (2) α–S and (3) β–S it applies to […]
General Notes and Materials […]
Biolayer Interferometry (BLI) General notes and Materials
IgG from human serum was purchased from Innovative Research (IHUI GGAP1000MG). Anti -23F antibody was purchased fr om Creative Biolabs (PABX -173). Biolayer Interferometry (BLI) was conducted using a ForteBio Octet Red96, and streptavidin biosensors (Sartorius - 18-5019) or ProG biosensors (Sartorius – 18-5082). For quench, a 5% skim milk (Nestle Carnation Instant Skim Milk) solution in 1X kinetics buffer was used. The instrument was set at 25 °C, with 1000 RPM, and acquisition rate of 5 Hz.
Each well of a black well plate (Greiner Bio -One - 655086) was filled with 200 µL of appropriate solution.
Dissociation buffer was comprised of L-rhamnose (100 mM, Sigma Aldrich – R3875-10G) in 1X kinetics buffer to reduce avidity contribution to dissociation rate (koff).
SDS-PAGE General notes and Materials […]
Carboxyfluorescein was purchased from Sigma Aldrich (21877 -5G-F). IgG from human serum was purchased from Innovative Research (IHUIGGAP1000MG). Anti -23F antibody was purchased from Creative Biolabs (PABX -173). Laemellie Buffer (2x) was purchased from Sigma Aldrich (S3401 -10VL).
Pre-cast Tris-Glycine Gels (4-20%) were purchased from Fisher Scientific (XP04202BOX). Standard protein ladder was purchased from Bio Rad (1610363). […]

Compound: glutamate urea [GU]
- Kd [1]: < 10 nM

Compound: C[C@@H]1O[C@@H](SCc2cn(CCc3cn(C(=O)OCCOCCOCCOCCOCCOCCOCCOCCNC(=O)CCCC[C@@H]4SC[C@@H]5NC(=O)N[C@@H]54)cn3)nn2)[C@H](O)[C@H](O)[C@H]1O [compound 5]
- antibody binding signal, quench control [2]: significant antibody binding signal

Compound: C[C@@H]1O[C@H](SCc2cn(CCOCCNC(=O)OCCOCCOCCOCCOCCOCCOCCOCCNC(=O)CCCC[C@@H]3SC[C@@H]4NC(=O)N[C@@H]43)nn2)[C@H](O)[C@H](O)[C@H]1O [compound 3]
- kon ([3]; 26.2 µM IgG): 19771 M⁻¹ s⁻¹
- koff ([3]; 26.2 µM IgG): 0.576 s⁻¹
- Kd ([3]; 26.2 µM IgG, read-out: Kd): 29 µM
- kon ([3]; 52.5 µM IgG): 11537 M⁻¹ s⁻¹
- koff ([3]; 52.5 µM IgG): 0.481 s⁻¹
- Kd ([3]; 52.5 µM IgG, read-out: Kd): 42 µM
- kon ([3]; 105 µM IgG): 6254 M⁻¹ s⁻¹
- koff ([3]; 105 µM IgG): 0.3901 s⁻¹
- Kd ([3]; 105 µM IgG, read-out: Kd): 62 µM
- Kd ([3]; average of three IgG concentrations, read-out: Avg Kd): 44 ± 17 µM

From article PMC10683482, “Offsetting Low-Affinity Carbohydrate Binding with Covalency to Engage Sugar-Specific Proteins for Tumor-Immune Proximity Induction” (ACS Central Science, 2023)
